How the values were obtained:
Format in all cases: in vivo
[1] = system: Long-Evans rats or squirrel-monkeys; experiment: Antipsychotic lever-push shock avoidance protocol (SIDR); conditions: Rattus norvegicus, read-out: SIDR ED50
Method: Representative compounds of the invention (identified in the Examples) were also tested for antipsychotic activity according to the following protocol (SIDR). […] Mature male Long-Evans rats or squirrel-monkeys are conditioned to push a lever in order to avoid a painful electric footshock. If the animal fails to push the lever, he receives a shock every ten seconds until the lever is pushed. Shocks can be terminated by pushing the lever. Thereafter, as long as the lever is pushed at least once every 20 seconds, there will be no shock. Each animal acts as its own control; one weekly session is used to establish baseline behavior and another session later in the week is used as a drug session. Once patterns of avoidance are established, the effects of standard and unknown compounds are studied. All events are electronically programmed and the response to these events counted or used as feedback to the program.

conscious rat = experiment: Antihypertensive evaluation (AHP3): aortic blood pressure and heart rate; conditions: for Mμ.c. ↓ / HR ↑: conscious rat; for Mμ.c. ↓: decrease in mean arterial blood pressure; for HR ↑: heart rate increase
male Swiss-Webster mice = experiment: Analgesic evaluation: antiwrithing (AW) test, acetic acid; conditions: Mus musculus, sc, read-out: AW ED50
Method: The antiwrithing (AW) test provides preliminary assessment of compounds with potential analgesic activity. The test is performed in male Swiss-Webster mice. Compounds are administered subcutaneously in aqueous 0.2% methylcellulose or other appropriate vehicles in volumes of 10 ml/kg. Dosages represent activity moiety.
Acetic acid (0.6%, 10 ml/kg) is injected intraperitroneally 20 minutes after administration of the adenosine agonist. Writhing movements are counted for five minutes starting seven minutes after the acetic acid injection. Writhing is defined as abdominal constriction and stretching of the body and hind legs with concave arching of the back. […] EDso values are calculated by nonlinear regression analysis.

SMILES: OC[C@H]1O[C@@H](n2cnc3c(NCC(c4ccccc4)c4ccccc4)ncnc32)[C@H](O)[C@@H]1O [Example 1, N^6-(2,2-Diphenylethyl)adenosine]
- ED50 [1]: 2.5 mg/kg
- Mμ.c. ↓ (conscious rat; 1 mg/kg): 16%
- HR ↑ (conscious rat; 1 mg/kg): <20%
- Mμ.c. ↓ (conscious rat; 3 mg/kg): 20%
- HR ↑ (conscious rat; 3 mg/kg): <20%
- Mμ.c. ↓ (conscious rat; 10 mg/kg): 20%
- HR ↑ (conscious rat; 10 mg/kg): <20%
- Mμ.c. ↓ (conscious rat; 30 mg/kg): 35%
- HR ↑ (conscious rat; 30 mg/kg): <20%
- minimal effective dose (conscious rat; Rattus norvegicus, read-out: AHP3 BP LAD): 1 mg/kg
- ED50 (male Swiss-Webster mice): 6.9 mg/kg

From patent EP0139358B1, “N6-substituted diarylalkyl adenosines, processes for their production and pharmaceutical compositions comprising the same” (priority 1983, dated 1985)
